Data on three compounds can be found in patent publication US11345710B2, “Imidazo[1,2-b]pyrimido[4,5-d]pyridazin-5(6H)-ones and the use thereof” (IMPACT THERAPEUTICS (SHANGHAI), INC, priority 2017, dated 2022).

Data set [1] deals with Wee1 kinase (h) (Homo sapiens, UniProt P30291). Put plainly: Wee1 kinase (h) detection method, [γ-33P]-ATP filter assay. It is filed as biochemical. To be noted: 10 μM ATP, 40 minutes at room temperature. Summed up: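 Radiometric filter-binding assay with human Wee1 in 20 mM Tris/HCl pH 8.5, 0.2 mM EDTA, 500 μM peptide substrate, 10 mM Mg acetate, 10 μM [γ-33P]-ATP; compounds at final 1, 0.1 or 0.01 μM. Reaction 40 min at room temperature, stopped with 0.5% phosphoric acid, spotted on P30 filtermat, scintillation counted, duplicates.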

Data set [2] deals with LoVo cells. Put plainly: MTT based cell viability assay on LoVo cells. To be noted: Homo sapiens, 72 h, read-out: IC50, growth inhibition on LoVo cells.
In data set [3] the test system is NCI-H1299 cells. The experiment in a line: MTT based cell viability assay on NCI-H1299 cells. As to conditions: Homo sapiens, read-out: IC50, growth inhibition on NCI-H1299 cells. Summed up: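 NCI-H1299 cells (1000/well) were plated overnight, then given a seven-point serial compound dilution plus DMSO control for 3 d at 37 °C, 5% CO2. Viability was read by MTT (0.5 mg/mL, 4 h, DMSO-solubilised) at 552/630/690 nm. IC50 came from a sigmoidal fit of survival versus concentration.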

The test system of data set [4] is patients with advanced solid tumors. To be noted: cited from earlier work.
Setting [5] is: of 176 evaluable patients, alone or in combination with chemotherapy.

Read-outs that look alike come from different tables or passages of the source.

Chain of Wee1 kinase (h) (P30291 whole entry): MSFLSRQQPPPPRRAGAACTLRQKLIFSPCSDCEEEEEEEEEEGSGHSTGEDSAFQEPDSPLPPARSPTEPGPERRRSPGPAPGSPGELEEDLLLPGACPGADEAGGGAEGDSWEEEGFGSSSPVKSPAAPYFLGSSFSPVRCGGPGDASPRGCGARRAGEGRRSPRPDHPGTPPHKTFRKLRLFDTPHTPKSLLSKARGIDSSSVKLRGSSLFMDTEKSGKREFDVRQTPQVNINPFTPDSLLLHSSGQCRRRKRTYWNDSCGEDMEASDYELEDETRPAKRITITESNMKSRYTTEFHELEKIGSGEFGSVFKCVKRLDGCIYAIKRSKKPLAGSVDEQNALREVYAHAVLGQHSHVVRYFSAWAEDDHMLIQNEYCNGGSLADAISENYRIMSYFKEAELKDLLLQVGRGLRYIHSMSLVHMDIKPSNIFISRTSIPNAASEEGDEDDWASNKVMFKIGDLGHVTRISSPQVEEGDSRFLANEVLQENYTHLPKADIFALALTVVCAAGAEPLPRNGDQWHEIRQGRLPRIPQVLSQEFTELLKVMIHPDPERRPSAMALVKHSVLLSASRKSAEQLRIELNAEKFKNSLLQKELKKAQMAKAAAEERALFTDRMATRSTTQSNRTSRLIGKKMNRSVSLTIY

Turning to `C=CCn1c(=O)c2cnc(Nc3ccc(N4CCN(C)CC4)cc3)nc2n1-c1cccc(C(C)(C)O)n1` [AZD1775], the “Inh. (%) of Wee1 kinase” value in data set [1] (C 0.01 μm) is 28%. In addition, the IC50 in data set [2] (LoVo cells, 3 d, MTT) was 154 nM; in data set [3] (72 h, NCI-H1299 cells, 3 d, MTT) it was 116 nM. The figures for the response rate in data set [4] (TP53 wild-type patients (n=33)) and in data set [4] (patients with TP53 mutation (n=19)) were 12% and 21%, respectively. For the same compound, in data set [4] (alone or in combination with chemotherapy, at a certain dose), the safety and tolerability result is “safe and tolerable”. Moreover, in data set [4] (setting [5]), the partial response is listed as 10%. Further, the “stable disease as the best response” value in data set [4] (setting [5]) is listed as 53%.

As for `COc1cc(Nc2ncc3c(=O)n(-c4c(Cl)cccc4Cl)n4ccnc4c3n2)cc(Cl)c1N1CCC(N(C)C)CC1` [Example 38, 6-(2,6-dichlorophenyl)-2-((3-chloro-5-methoxy-4-(4-(dimethylamino)piperidin-1-yl)phenyl)amino)imidazo[1,2-b]pyrimido[4,5-d]pyridazin-5(6H)-one], the “Inh. (%) of Wee1 kinase” value in data set [1] (C 0.01 μm) stood at 11%. In addition, the IC50 was found to be 416 nM in data set [2] (LoVo) and 978 nM in data set [3] (NCI-H1299, 72 h).

As to `CN1CCN(c2ccc(Nc3ncc4c(=O)n(-c5c(Cl)cccc5Cl)n5ccnc5c4n3)cc2Cl)CC1` [Example 27, 6-(2,6-dichlorophenyl)-2-((3-chloro-4-(4-methylpiperazin-1-yl)phenyl)amino)imidazo[1,2-b]pyrimido[4,5-d]pyridazin-5(6H)-one], the “Inh. (%) of Wee1 kinase” value in data set [1] (C 0.01 μm) is on record as 17%; in data set [1] (C 0.1 μm) it was 76%; in data set [1] (C 1 μm), 97%. Moreover, the IC50 in data set [2] (LoVo) came to 370 nM; in data set [3] (NCI-H1299, 72 h) it was 470 nM.

Usually IC50 stands for the midpoint of a concentration-inhibition curve.
